Assay [1] relates to Mycobacterium tuberculosis. In words: Inhibition of Mycobacterium tuberculosis ThyA using dUMP as substrate up to 100 uM measured immediatedly and at 10 mins post mTHF addition by spectrophotometric analysis.
In assay [2] the test system is Mycobacterium tuberculosis. Briefly: (§1) Inhibition of Mycobacterium tuberculosis ThyX using [5-3H]dUMP as substrate after 10 mins by liquid scintillation counting analysis.
Assay [3] concerns Mycobacterium tuberculosis. Briefly: Activation of Mycobacterium tuberculosis ThyA using dUMP as substrate up to 100 uM measured immediatedly and at 10 mins post mTHF addition by spectrophotometric analysis.
The nature of assay [4]: as §1.

Active and inactive are the calls of the source. No cut-off for these calls is given here.

The record followed here is ChEMBL document CHEMBL3627679, “Synthesis and evaluation of C-5 modified 2'-deoxyuridine monophosphates as inhibitors of M. tuberculosis thymidylate synthase” (Bioorg Med Chem, 2015).

By IC50 is commonly meant the concentration needed to halve the response being measured. Read a high IC50 as a need for much substance.

`CCCCCCCCCCCCOCc1cn([C@H]2C[C@H](N=[N+]=[N-])[C@@H](COP(=O)(O)O)O2)c(=O)[nH]c1=O`: the inhibition entry in assay [1] and in assay [2] was “inactive” throughout.
Consider `COCCOCCOCCOCc1cn([C@H]2C[C@H](O)[C@@H](COP(=O)(O)O)O2)c(=O)[nH]c1=O`, for which the inhibition entry in assay [1] and in assay [2] was “inactive” throughout.
As for `CCCCCCCCCCc1cn(Cc2cn([C@H]3C[C@H](O)[C@@H](COP(=O)(O)O)O3)c(=O)[nH]c2=O)nn1`, the inhibition result in assay [1] and in assay [2] was “inactive” in each case.
As to `CCCCCCCCCCCOCc1cn([C@H]2C[C@H](O)[C@@H](COP(=O)(O)O)O2)c(=O)[nH]c1=O`, the inhibition entry in assay [1] is “inactive”. In addition, the outcome in assay [3] was Active. The compound further yielded an IC50 in assay [4] of 8.32 µM.
On to `CCCCCCCCc1cn(Cc2cn([C@H]3C[C@H](O)[C@@H](COP(=O)(O)O)O3)c(=O)[nH]c2=O)nn1`, for which the inhibition result in assay [1] and in assay [2] was “inactive” each time.
On to `CCCCCCCCCCOCc1cn([C@H]2C[C@H](O)[C@@H](COP(=O)(O)O)O2)c(=O)[nH]c1=O`, for which the inhibition result in assay [1] and in assay [2] was “inactive” each time.
In the case of `CCCCCCCCCCCCOCc1cn([C@H]2C[C@H](O)[C@@H](COP(=O)(O)O)O2)c(=O)[nH]c1=O`, the inhibition result in assay [1] and in assay [2] was “inactive” throughout.
